The compounds below were run against T1, rat EP1 receptor (Rattus norvegicus, UniProt P70597) (assay: Test for confirmation of EP1 receptor antagonism (inhibition of PGE2-induced increase in intracellular calcium concentration)). Details: rat EP1 receptor-expressing COS-1 cells; prostaglandin E2 10 nM; fluorescent calcium indicator, FDSS 7000.
T1 construct: expressed in transfected cells
T1 sequence (P70597 1-405): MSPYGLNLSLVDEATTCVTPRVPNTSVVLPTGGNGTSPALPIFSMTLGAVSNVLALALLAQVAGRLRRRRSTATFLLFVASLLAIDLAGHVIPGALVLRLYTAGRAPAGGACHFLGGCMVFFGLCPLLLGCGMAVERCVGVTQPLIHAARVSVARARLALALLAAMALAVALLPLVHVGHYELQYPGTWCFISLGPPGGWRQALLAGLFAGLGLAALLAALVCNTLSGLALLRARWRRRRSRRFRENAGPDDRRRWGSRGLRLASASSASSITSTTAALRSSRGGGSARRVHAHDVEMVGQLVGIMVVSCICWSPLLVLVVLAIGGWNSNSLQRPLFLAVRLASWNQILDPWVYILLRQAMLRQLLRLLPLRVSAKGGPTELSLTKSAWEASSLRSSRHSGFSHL
Type: cell-based
Protocol: Test for Confirmation of EP1 Receptor Antagonism
(1) Preparation of Rat EP1 Expression Vector
Using Rat Kidney BD Marathon-Ready cDNA (Nippon Becton Dickinson Company, Ltd.) as a template, a forward primer shown in (SEQ ID NO:1), and a reverse primer shown in (SEQ ID NO:2), a first run of PCR was carried out using KOD-Plus-Ver 2.0 (Toyobo Co., Ltd.). Further, using this amplification product as a template, a forward primer shown in (SEQ ID NO:3), and a reverse primer shown in (SEQ ID NO:4), a second run of PCR was carried out in the same manner. The amplification product obtained by the second run of PCR was incorporated into a vector (pcDNA3.1 D/V5-His-TOPO (registered trademark), Invitrogen Japan K. K.). By a conventional method, the vector containing this amplification product was introduced to E. coli (One Shot TOP 10 Competent Cells, Invitrogen Corporation) to transform. This transformed E. coli was cultured in an LB agar medium for one day. After the culture, colonies were selected and cultured in an LB liquid medium containing 50 μg/mL of ampicillin. After the culture, the vector was purified using a QIAprep Spin Miniprep Kit (Qiagen K. K.). The base sequence of the insertion site of this vector (SEQ ID NO:5) was compared with the rat EP1 base sequence (Ptger1) registered as Accession No. NM_013100 in publicly-known database (NCBI), and as a result, they all matched except for a single base. Further, the amino acid sequence translated by the base sequence completely matched the amino acid sequence of the rat EP1 receptor registered as an NCBI Accession No. NP_037232. Therefore, it was confirmed that the cloned gene sequence was a base sequence of the rat EP1 receptor and the obtained amino acid sequence was that of the rat EP1 receptor. The pcDNA3.1 D/V5-His-TOPO (registered trademark) to which the nucleic acid shown in (SEQ ID NO:5) had been inserted was taken as a rat EP1-expressing vector.
(2) Preparation of Rat EP1 Receptor-Expressing Cells
COS-1 cells (Dainippon Sumitomo Pharma Co., Ltd.) were cultured until they reached confluence in an incubator at 37° C. under a 5% CO2 gas condition, using a D-MEM liquid medium (high glucose and L-glutamine contained, Invitrogen Corporation) to which a penicillin-streptomycin solution (Invitrogen Corporation, final concentration: 100 U/mL as benzylpenicillin; 100 μg/mL as streptomycin) as an antibiotic, MEM nonessential amino acids (Invitrogen Corporation, final concentration: 0.1 mM), and fetal calf serum (Sanko Junyaku Co., Ltd., final concentration: 10%) were added.
The cells that had reached confluence were stripped with 0.05% trypsin/0.53 mM EDTA.4Na, and resuspended in a D-MEM liquid medium (high glucose and L-glutamine contained, Invitrogen Corporation) to which an MEM nonessential amino acid (final concentration: 0.1 mM) and fetal calf serum (final concentration: 10%) were added. In each well of a Poly D-lysine-coated 96-well microplate (BD BioCoat (registered trademark), Nippon Becton Dickinson Company, Ltd.), this resuspended cell suspension culture was prepared to be 5×10^4 cells/well in 100 μL of the liquid medium, and 100 μL of the cell suspension was seeded on each well. After seeding, the cells were cultured in an incubator at 37° C. under a 5% CO2 gas condition. At a point when the cells for introduction of a rat EP1-expressing vector were adhered (about 2 hours after seeding), introduction of the rat EP1-expressing vector was carried out in the following order.
For introduction of the rat EP1-expressing vector, Lipofectamine 2000 (Invitrogen Japan K. K.) was used. The rat EP1-expressing vector was diluted with OPTI-MEM (registered trademark) I Reduced-Serum Medium (Invitrogen Japan K. K.) to 200 ng/25 μL/well, and at the same time, Lipofectamine 2000 (Invitrogen Japan K. K.) was also diluted with OPTI-MEM (registered trademark) I Reduced-Serum Medium (Invitrogen Japan K. K.) to 0.5 μL/25 μL/well, followed by incubation at room temperature for 5 minutes. […]

Row | IC50 | Structure (SMILES)
1 | 99 nM | COc1ccc2c(Cc3cccc(C(=O)NS(C)(=O)=O)n3)c(-c3ccsc3)[nH]c2c1 [Example 1, N-Methanesulfonyl-6-(6-methoxy-2-thiophen-3-yl-1H-indol-3-ylmethyl)pyridine-2-carboxamide]
2 | 30 nM | COc1ccc2c(Cc3cccc(C(=O)NS(=O)(=O)c4ccccc4)n3)c(-c3ccccc3)[nH]c2c1 [Example 3-3]
3 | 39 nM | CCCS(=O)(=O)NC(=O)c1cccc(Cc2c(-c3ccccc3)[nH]c3cc(OC)ccc23)n1 [Example 3-4]
4 | 55 nM | CCCS(=O)(=O)NC(=O)c1cccc(Cc2c(C(C)(C)C)[nH]c3cc(OC)c(Cl)cc23)n1 [Example 3-5]
5 | 33 nM | CCS(=O)(=O)NC(=O)c1cccc(Cc2c(C(C)(C)C)[nH]c3cc(OC)c(Cl)cc23)n1 [Example 3-7]
6 | 47 nM | COc1ccc2c(Cc3cccc(C(=O)NS(=O)(=O)C4CC4)n3)c(-c3ccccc3)[nH]c2c1 [Example 3-10]
7 | 17 nM | COc1ccc2c(Cc3cccc(C(=O)NS(=O)(=O)c4ccccc4)n3)c(C(C)(C)C)[nH]c2c1 [Example 3-11]
8 | 27 nM | Cc1ccc2c(Cc3cccc(C(=O)NS(C)(=O)=O)n3)c(-c3ccsc3)[nH]c2c1 [Example 3-12]
9 | 27 nM | COc1ccc2c(Cc3cccc(C(=O)NS(=O)(=O)C(C)C)n3)c(-c3ccccc3)[nH]c2c1 [Example 3-13]
10 | 88 nM | COc1ccc2c(Cc3cccc(C(=O)NS(C)(=O)=O)n3)c(-c3ccc(F)cc3)[nH]c2c1 [Example 3-14]
11 | 27 nM | CCS(=O)(=O)NC(=O)c1cccc(Cc2c(-c3ccc(F)cc3)[nH]c3cc(OC)ccc23)n1 [Example 3-15]
12 | 68 nM | COc1ccc2c(Cc3cccc(C(=O)NS(C)(=O)=O)n3)c(-c3csc(C)c3)[nH]c2c1 [Example 3-20]
13 | 86 nM | CCS(=O)(=O)NC(=O)c1cccc(Cc2c(-c3csc(C)c3)[nH]c3cc(OC)ccc23)n1 [Example 3-21]
14 | 58 nM | CCS(=O)(=O)NC(=O)c1cccc(Cc2c(-c3ccoc3)[nH]c3cc(OC)ccc23)n1 [Example 3-23]
15 | 58 nM | CCS(=O)(=O)NC(=O)c1cccc(Cc2c(-c3ccccc3)[nH]c3cc(Cl)ccc23)n1 [Example 3-24]
16 | 78 nM | CS(=O)(=O)NC(=O)c1cccc(Cc2c(-c3ccccc3)[nH]c3cc(Cl)ccc23)n1 [Example 3-25]
17 | 43 nM | Cc1cc2[nH]c(-c3ccccc3)c(Cc3cccc(C(=O)NS(C)(=O)=O)n3)c2cc1C [Example 3-30]
18 | 47 nM | CCS(=O)(=O)NC(=O)c1cccc(Cc2c(-c3ccccc3)[nH]c3cc(C)c(C)cc23)n1 [Example 3-31]
19 | 51 nM | CCS(=O)(=O)NC(=O)c1cccc(Cc2c(-c3ccccc3)[nH]c3cc(OC)c(F)cc23)n1 [Example 3-32]
20 | 66 nM | CCS(=O)(=O)NC(=O)c1cccc(Cc2c(-c3ccccc3)[nH]c3cc(C4CC4)ccc23)n1 [Example 3-33]
21 | 40 nM | CCS(=O)(=O)NC(=O)c1cccc(Cc2c(-c3ccccc3)[nH]c3cc(C)ccc23)n1 [Example 3-34]
22 | 12 nM | COc1ccc2c(Cc3cccc(-c4nnn[nH]4)n3)c(-c3ccsc3)[nH]c2c1 [Example 5-4]
23 | 45 nM | COc1ccc2c(Cc3cccc(-c4nnn[nH]4)c3)c(-c3ccccc3)[nH]c2c1 [Example 5-6]
24 | 12 nM | COc1cc2[nH]c(-c3ccccc3)c(Cc3cccc(-c4nnn[nH]4)n3)c2cc1F [Example 5-8]
25 | 22 nM | COc1ccc2c(Cc3cccc(-c4nnn[nH]4)n3)c(-c3ccc(F)cc3)[nH]c2c1 [Example 5-9]

Row | IC50 | Structure (SMILES)
26 | 13 nM | COc1ccc2c(Cc3cccc(-c4nnn[nH]4)n3)c(-c3cccnc3)[nH]c2c1 [Example 5-10]
27 | 26 nM | COc1ccc2c(Cc3cccc(-c4nnn[nH]4)n3)c(-c3csc(C)c3)[nH]c2c1 [Example 5-12]
28 | 30 nM | Cc1ccc2c(Cc3cccc(-c4nnn[nH]4)n3)c(-c3ccsc3)[nH]c2c1 [Example 5-13]
29 | 50 nM | COc1ccc2c(Cc3cccc(-c4noc(=S)[nH]4)n3)c(-c3ccccc3)[nH]c2c1 [Example 9, 3-[6-(6-Methoxy-2-phenyl-1H-indol-3-ylmethyl)pyridin-2-yl]-4,5-dihydro-1,2,4-oxadiazole-5-thione]
30 | 23 nM | COc1ccc2c(Cc3cccc(-c4noc(=O)[nH]4)n3)c(-c3ccoc3)[nH]c2c1 [Example 12-1]
31 | 43 nM | COc1ccc2c(Cc3cccc(-c4noc(=O)[nH]4)n3)c(C(C)(C)C)[nH]c2c1 [Example 12-2]
32 | 46 nM | COc1cc2[nH]c(-c3ccccc3)c(Cc3cccc(-c4noc(=O)[nH]4)n3)c2cc1F [Example 12-5]
33 | 40 nM | O=c1[nH]c(-c2cccc(Cc3c(-c4ccccc4)[nH]c4cc(C5CC5)ccc34)n2)no1 [Example 12-6]
34 | 28 nM | Cc1cc2[nH]c(-c3ccccc3)c(Cc3cccc(-c4noc(=O)[nH]4)n3)c2cc1C [Example 12-7]
35 | 34 nM | Cc1ccc2c(Cc3cccc(-c4noc(=O)[nH]4)n3)c(-c3ccsc3)[nH]c2c1 [Example 12-9]
36 | 54 nM | Cc1ccc2c(Cc3cccc(C(=O)NC#N)n3)c(-c3ccccc3)[nH]c2c1 [Example 16-1]
37 | 48 nM | COc1ccc2c(Cc3cccc(C(=O)NC#N)n3)c(C(C)(C)C)[nH]c2c1 [Example 16-2]
38 | 24 nM | COc1cc2[nH]c(-c3ccccc3)c(Cc3cccc(C(=O)NC#N)n3)c2cc1F [Example 16-3]
39 | 46 nM | COc1cc2[nH]c(C(C)(C)C)c(Cc3cccc(C(=O)NC#N)n3)c2cc1Cl [Example 16-5]
40 | 36 nM | Cc1ccc2c(Cc3cccc(C(=O)NC#N)n3)c(-c3ccsc3)[nH]c2c1 [Example 16-6]
41 | 20 nM | Cc1cc2[nH]c(-c3ccccc3)c(Cc3cccc(-c4nnn[nH]4)n3)c2cc1C [Example 17-3]
42 | 27 nM | COc1cc2[nH]c(C(C)C)c(Cc3cccc(-c4nnn[nH]4)n3)c2cc1Cl [Example 17-4]
43 | 23 nM | COc1ccc2c(Cc3cccc(-c4nnn[nH]4)n3)c(C(C)C)[nH]c2c1 [Example 17-5]
44 | 31 nM | COc1ccc2c(Cc3cccc(-c4nnn[nH]4)n3)c(C3CC3)[nH]c2c1 [Example 17-6]
45 | 30 nM | COc1ccc2c(Cc3cccc(-c4nnn[nH]4)n3)c(C3CCCCC3)[nH]c2c1 [Example 17-7]
46 | 7.3 nM | Cc1ccc2c(Cc3cccc(-c4nnn[nH]4)n3)c(-c3ccoc3)[nH]c2c1 [Example 17-8]
47 | 10 nM | c1cc(Cc2c(-c3ccoc3)[nH]c3cc(C4CC4)ccc23)nc(-c2nnn[nH]2)c1 [Example 17-9]
48 | 22 nM | CCC(C)c1[nH]c2cc(OC)ccc2c1Cc1cccc(-c2nnn[nH]2)n1 (stereo not shown) [Example 17-10]
49 | 28 nM | CC1(c2[nH]c3cc(C4CC4)ccc3c2Cc2cccc(-c3nnn[nH]3)n2)CC1 [Example 17-13, 6-cyclopropyl-2-(1-methylcyclopropyl)-3-[6-(1H-tetrazol-5-yl)pyridin-2-ylmethyl]-1H-indole]
